Laboratory results taken from patent US4604383A, “Pyrrolidin-2-ones and medicaments containing them” (Societe Anonyme Styled: SANOFI, priority 1983, dated 1986).
Where two headings read alike, the source gives them in different places.

What was measured:
[1] = Effect on spontaneous motility (Boissier and Simon activity test, actimetric cages); type: in vivo, mouse (CD1 Charles Rivers female mice); conditions: mouse; for Locomotor activity, score percent/controls: 100 mg/kg p.os., 45 min after administration, 10 min recording, * P <= 0.05, ** P <= 0.01; for Effect on spontaneous motility (in words): oral dose of 100 mg/kg
Method: The spontaneous motility of the animals was measured by means of the activity test developed by Boissier and Simon, Arch. Int. Pharmacocyn., 1965, 158, 212-221. The equipment is composed of actimetric cages, type Apelab (26×21.5×10 cm), traversed by two light rays which fall on a photoelectric cell. The batches were constituted by CD1 Charles Rivers female mice, of weight comprised between 20 and 24 g. The animals were placed individually in cages 45 minutes after oral administration of the products at the dose of 100 mg/kg. Each traversal by a light beam was counted by an individual counter. The scores corresponding to the movements of the animals were recorded for 10 minutes, and compared with the scores taken on batches of control animals, treated only with the vehicle (5% gum arabic).

[2] = Acute toxicity, determination of the lethal dose in the mouse; conditions: in vivo, po, read-out: Percent toxicity (animals which die in 72 hours)
Method: The toxicity of the products according to the invention was studied: the products were administered orally, to batches of 5 CD Charles Rivers female mice, of weights comprised between 20 and 24 g. The toxicity was noted during the 72 hours which followed the administration of the products.
The results expressed as a percentage of animals which die in the 72 hours following the oral administration of the products, are noted in the preceding table.

[3] = Antagonism to the convulsions caused by 3-mercaptopropionic acid; type: in vivo, mouse (CD Charles Rivers mice); conditions: mouse, oral, 60 min before 3-mercaptopropionic acid 60 mg/kg s.c.; probit method, confidence limits in parentheses, p <= 0.05; read-out: Median effective dose (ED50) of antagonism to convulsions caused by 3-mercaptopropionic acid
Method: (§1) The anticonvulsant effect of the products in the mouse was evaluated on a model of convulsions caused by electric shock, and on 2 models of convulsions induced by chemical agents: bicuculline and 3-mercaptopropionic acid.
The batches were constituted by 10 CD Charles Rivers mice of weights comprised between 20 and 22 g. The products were administered orally 60 minutes before the 3-mercaptopropionic acid (60 mg/kg s.c.).

[4] = Potentiation of narcosis with pentobarbital (loss of righting reflex); type: in vivo, mouse (CD1 Charles Rivers mice); conditions: mouse, 60 min before pentobarbital 20 mg/kg i.p.; for Potentiation of pentobarbital, percent of animals in narcosis: products at 100 mg/kg p.os.; for ED50: po, p.os., probit method, confidence limits in parentheses, P <= 0.05
Method: For the purpose of evaluating the hypnogenic power of the products, their capacity to potentiate the effects of a subnarcotic dose of pentabarbital in the mouse was studied. The batches were constituted by 10 CD1 Charles Rivers mice, of weight comprised between 20 and 24 g.
The pentobarbital (20 mg/kg, i.p.) was administered 60 minutes after administration of the products. The drowsiness criterion taken was the loss of the righting reflex.

[5] = Antagonism of convulsions and of mortality caused by bicucullin; type: in vivo, mouse (CD Charles Rivers mice)
Method: as §1
The batches were constituted by 10 CD Charles Rivers mice of weights comprised between 20 and 22 g. The products were administered orally, 60 minutes before the bicucullin (0.8 mg/kg, i.v.).

[6] = Antagonism of the convulsions induced by electric shock; type: in vivo, mouse (CD1 Charles Rivers mice); conditions: mouse, oral, 60 min before electroshock; probit method, confidence limits in parentheses, p <= 0.05; read-out: Median effective dose (ED50) of electric shock antagonism
Method: as §1
The test was slightly modified from that of Swinyard et al., J. Pharm. Exp. Ther., 1952, 106, 319-330 and Asami et al. Arzneim. Forsch., 1974, 24 (1), 1563-1568. The equipment was composed of a Racia shock generator provided with two occular electrodes delivering a current of 60 volts for 0.3 seconds. The batches were constituted by 10 CD1 Charles Rivers mice of weight comprised between 20 and 24 g. The products were administered orally, 60 minutes before the electroshock.

[7] = Mus musculus, po, read-out: Median effective dose (ED50) of the antagonism to the effects of bicucullin: Mortality
[8] = mouse, oral, 60 min before bicucullin 0.8 mg/kg i.v., probit method, confidence limits in parentheses, p < 0.05, read-out: Median effective dose (ED50) of the antagonism to the effects of bicucullin: Tonic convulsions

Row | SMILES | Locomotor activity, score percent/controls [1] [%] | Effect on spontaneous motility (in words) [1] | mortality at 72 h ([2]; 250 mg/kg p.os.) [%] | mortality at 72 h ([2]; 500 mg/kg p.os.) [%] | mortality at 72 h ([2]; 1000 mg/kg p.os.) [%] | ED50 [3] [mg/kg] | Potentiation of pentobarbital, percent of animals in narcosis [4] [%] | ED50 [4] [mg/kg] | ED50 [5, 7] [mg/kg] | ED50 [5, 8] [mg/kg] | ED50 [6] [mg/kg] | mortality at 72 h ([2]; 250 mg/kg) [%] | mortality at 72 h ([2]; 500 mg/kg) [%] | mortality at 72 h ([2]; 1000 mg/kg) [%]
1 | CC1CC(Cc2ccc(Cl)cc2Cl)NC1=O (stereo not drawn) [SR 41676] | -34 | sedative activity characterized by a considerable reduction in the motility | 0 | 0 | 0 | 23 | 100 | 48 |  |  |  |  |  | 
2 | CCCCC1([Si](C)(C)C)CC(Cc2ccccc2)NC1=O (stereo not drawn) [SR 42133] |  |  | 0 | 0 | 0 |  |  |  |  |  |  |  |  | 
3 | CCC1(C)CC(Cc2ccccc2F)NC1=O (stereo not drawn) [SR 42001, 3-ethyl-5-[(2-fluoro-phenyl)-methyl]-3-methyl 2-pyrrolidinone] |  |  | 0 | 0 | 20 |  | 20 |  | 62 | 83 |  |  |  | 
4 | CC1CC(Cc2c(F)cccc2Cl)NC1=O (stereo not drawn) [SR 42004] |  |  | 0 | 0 | 0 | 27 | 30 |  | > 100 | ~100 | 34 |  |  | 
5 | COc1ccc(CC2CC(c3ccccc3)C(=O)N2)cc1OC (stereo not drawn) [SR 41773] |  |  | 0 | 0 |  |  |  |  |  |  |  |  |  | 
6 | CC1(C)CC(Cc2ccc(F)cc2)NC1=O (stereo not drawn) [SR 41293, 3,3-dimethyl-5-[(4-fluoro-phenyl)-methyl]2-pyrrolidinone] |  |  | 0 | 0 | 80 | 20 | 80 | 56 | 41 | 90 | 99 |  |  | 
7 | CC1(C)CC(Cc2ccccc2Cl)NC1=O (stereo not drawn) [SR 41880] |  |  | 0 | 0 | 20 |  | 40 |  |  |  |  |  |  | 
8 | Cc1ccc(CC2CC(C)(C)C(=O)N2)cc1 (stereo not drawn) [SR 42003] |  |  | 0 | 0 | 0 |  |  |  |  |  |  |  |  | 
9 | CC1CC(Cc2ccccc2)NC1=O (stereo not drawn) [SR 42010] |  |  | 0 |  |  | 44 |  |  |  |  | 105 |  |  | 
10 | C[C@@H]1C[C@@H](Cc2cccs2)NC1=O (relative stereo) [SR 42008, 3-methyl-5-(2-thienyl-methyl)-2-pyrrolidinone] | -52 | sedative activity characterized by a considerable reduction in the motility |  |  |  |  |  |  |  |  |  | 0 | 0 | 0
11 | CC1(C)CC(Cc2ccc(Cl)cc2Cl)NC1=O (stereo not drawn) [SR 42508] |  |  | 0 | 0 | 0 |  |  |  | 73 | ~100 | 50 |  |  | 
12 | CC1CC(Cc2ccc(F)cc2)NC1=O (stereo not drawn) [SR 41882, 5[(4-fluoro-phenyl)-methyl]-3-methyl-2-pyrrolidinone] |  |  | 0 | 0 | 100 | 41 | 20 |  |  |  |  |  |  | 
13 | C[C@H]1C[C@@H](Cc2cccs2)NC1=O (relative stereo) [SR 42009, 3-methyl-5-(2-thienyl-methyl)-2-pyrrolidinone] | -23 | sedative activity characterized by a considerable reduction in the motility |  |  |  |  |  |  |  |  |  | 0 | 0 | 40
14 | C[Si](C)(C)C1CC(Cc2ccccc2)NC1=O (stereo not drawn) [SR 42134] |  |  | 0 | 0 | 0 |  |  |  |  |  |  |  |  | 
15 | CC(C)C1CC(Cc2ccc(Cl)cc2)NC1=O (stereo not drawn) [SR 42726] |  |  | 0 | 0 | 20 |  |  |  |  |  | 72 |  |  | 
16 | CC1CC(Cc2ccc(Cl)cc2)NC1=O (stereo not drawn) [SR 42354] |  |  | 0 | 0 |  | 40 |  |  | 66 | 63 | 34 |  |  | 
17 | CC1(C)CC(Cc2cccc(C(F)(F)F)c2)NC1=O (stereo not drawn) [SR 42725] |  |  | 0 | 0 | 0 |  |  |  | 66 | ~100 | 34 |  |  | 
18 | CC1CC(Cc2cccc(Cl)c2)NC1=O (stereo not drawn) [SR 42717] |  |  | 0 | 0 | 100 |  |  |  | 59 | ~100 | 41 |  |  | 
19 | CC1CC(Cc2cccc(C(F)(F)F)c2)NC1=O (stereo not drawn) [SR 42401] |  |  | 0 | 0 |  |  |  |  | 72 | 62 | 39 |  |  | 
20 | CC1(C)CC(Cc2ccc(Cl)cc2)NC1=O (stereo not drawn) [SR 41873] |  |  | 0 | 0 |  | 48 | 10 |  | 85 | 112 | 62 |  |  | 
21 | COc1ccc(CC2CC(C)(C)C(=O)N2)cc1OC (stereo not drawn) [SR 41677] |  |  | 0 | 0 |  |  | 30 |  |  |  |  |  |  | 
22 | CCC1(C)CC(Cc2ccc(F)cc2)NC1=O (stereo not drawn) [SR 42002] |  |  | 0 | 0 | 100 | 49 | 50 |  |  | ~100 | 49 |  |  | 
